Columns and labels:
[1] = system: spheroid CD24-sh and CD24-Ctrl BFTC 905, BFTC 909, and 5637 cells; experiment: Cell viability assay (MTT assay) after cisplatin treatment; format: cell-based; conditions: 5 μM CDDP, 72 h; spheroid CD24-sh vs spheroid CD24-Ctrl cells
Description: (§1) FIG. 2A-2E. The chemoresistant and tumorigenic abilities attenuated by CD24 knockdown in BFTC 905, BFTC 909, and 5637 cell lines. (FIG. 2A) Cell viability after 5 μM cisplatin (CDDP) treatment for 72 h in the spheroid CD24-sh cells, as measured by MTT assay. Cell viability was expressed as the ratio of absorbance values of the spheroid CD24-sh cells related to the spheroid CD24-Ctrl cells considered as 1.0. Data are from three independent experiments. (FIG. 2B) An apoptosis assay of spheroid CD24-sh cells treated with 5 μM CDDP for 72 h. Upper, representative images of early apoptosis (bottom right quadrant) and late apoptosis (top right quadrant); Lower, percentage of apoptotic cells. (FIG. 2C) Western blotting analysis of ABCG2, YAP1, and CD133 in stable CD24-sh and CD24-Ctrl cells. (FIG. 2D) Limiting-dilution xenograft assays in stable spheroid CD24-sh BFTC 909 (upper) and BFTC 905 (lower) cells. Tumor growth was measured after subcutaneous injection of serially diluted spheroid cells (1×10^4, 1×10^3, or 1×10^2 cells per flank) into both flanks of NSG mice (five mice per group). SP, Spheroid. […]
Cell viability assay (MTT assay). Cell viability was measured using the 3-(4, 5-dimethyl thiazol-2-yl)-2, 5-diphenyltetrazolium bromide (MTT) Proliferation Assay Kit (ATCC; Manassas, Va., USA) according to the manufacturer's protocol. […]

[2] = system: spheroid CD24-sh and CD24-Ctrl BFTC 905, BFTC 909, and 5637 cells; experiment: Apoptosis assay (PE Annexin V / 7-AAD flow cytometry) after CDDP; format: cell-based; conditions: 5 μM CDDP, 72 h; spheroid cells with CD24 knockdown
Description: as §1, with “Spheroid. (FIG. 2E) Tumor initiation frequency after the xenotransplantation of spheroid CD24-sh BFTC 909 (upper) and BFTC 905 (lower) cells.” for “Spheroid.”

For `N.N.[Cl][Pt][Cl]` [cisplatin], the “sensitivity of spheroid cells to CDDP treatment (cell viability)” value [1] was “spheroid CD24-sh cells were more sensitive to CDDP treatment than spheroid CD24-Ctrl cells” and the “anti-apoptotic ability against CDDP treatment” value [2] was “CD24 knockdown significantly attenuated the anti-apoptotic ability against CDDP treatment”.

— patent US20210355547A1, “NON-INVASIVE URINARY BIOMARKERS FOR THE DETECTION OF UROTHELIAL CARCINOMA OF THE BLADDER” (THE JOHNS HOPKINS UNIVERSITY, priority 2018, published 2021)
